Key:
Human OX1 receptor [1] = molecular target: T1, Human OX1 receptor (Homo sapiens (Human), UniProt O43613); assay: [3H]-radioligand binding assay, OX1; conditions: competition binding, membranes of SF21 cells, Ki by Cheng-Prusoff
Text: (§1) Cloning, Baculovirus generation, large-scale infection of SF21 cells and membrane preparation. Human OX1 or OX2 receptor were cloned into Invitrogen's (ThermoFisher Scientific, UK) Bac-to-Bac Baculovirus Expression System. P0 baculovirus was generated by transfecting SF9 cells with bacmid DNA using Cellfectin® II transfection reagent (ThermoFisher Scientific, UK, Catalog number 10362-100). Following P0 generation P1 virus was then generated ready for large scale infection and membrane preparation. SF21 cells were grown in expression medium ESF921 (Expression Systems, USA, catalog number 96-001-01) supplemented with 10% heat-inactivated FBS and 1% Pen/Strep and were infected at a cell density of 2.5×10^6 cells/mL and a multiplicity of infection of 1.0 for both human OX1R and OX2R. Incubation was carried out at over 48 h in a shaking incubator set at 27° C. The cell culture was then centrifuged at 2,500 rcf for 10 min at 4° C. The pellets were resuspended in cold PBS supplemented with Roche's Complete EDTA-free protease inhibitor cocktail tablets (Roche Applied Sciences, catalog number 05056489001), 1 mM PMSF and 1 mM EDTA. The resuspended cell paste was then centrifuged at 3,273 rcf for 12 min at 4° C. The supernatant was discarded and the pellet frozen at −80° C. The cell pellet from a 4 L culture was resuspended in buffer containing 50 mM HEPES pH 7.5, 150 mM NaCl, 8 Roche EDTA-Free protease inhibitor cocktail tablets and 1 mM PMSF. The suspension was left stirring at rt for 1 h and then homogenised for 90 s at 9,500 rpm using a VDI 25 (VWR, USA) homogeniser. The cells were then lysed using a Microfluidiser processor M-110L Pneumatic (Microfluidics, USA) at 60 PSI and membranes collected by ultracentrifugation at 204.7 k×g for 1 h. The supernatant was discarded and the pellet was resuspended and homogenised in 90 s at 9,500 rpm in 50 mL (25 mL for each 2 L culture) of buffer containing 50 mM Hepes pH 7.5, 150 mM NaCl, 3 Roche EDTA-free protease inhibitor cocktail tablets and 1 mM PMSF. The resulting membranes were then stored at −80° C.
(§2) [^3H]-radioligand binding assay. After thawing, membrane homogenates were resuspended in the binding buffer (8.5 mM HEPES, pH 7.4, 1.3 mM CaCl2, 1.2 mM MgSO4, 118 mM NaCl, 4.7 mM KCl, 4 mM NaHCO3, 1.2 mM KH2PO4, 11 mM glucose) to a final assay concentration of 6.4 μg (OX1) or 1.4 μg (OX2) protein per well. Saturation isotherms were determined by the addition of various concentrations (0-30 nM) of [^3H]-4-(2,6-difluoro-4-methoxybenzyl)-2-(5,6-dimethoxypyridin-3-yl)-2H-1,2,4-benzothiadiazin-3(4H)-one 1,1-dioxide (Christopher et al, MedChemComm., 2015, 6, 947-955) in a total reaction volume of 250 μL for 90 min at rt. At the end of the incubation, membranes were filtered onto a 96-well GF/B filter pre-incubated with 0.5% polyethylenimine, with a Tomtec cell harvester and washed 5 times with 0.5 mL distilled water. Non-specific binding (NSB) was measured in the presence of 3.33 μM [4-(5-chloro-1,3-benzoxazol-2-yl)-7-methyl-1,4-diazepan-1-yl][5-methyl-2-(2H-1,2,3-triazol-2-yl)phenyl]methanone (Wertz et al, Angew. Chem. Int. Ed., 2011, 50, 11511-11515). Radioactivity on the filter was counted (1 min) on a Microbeta radiometric plate counter (Perkin Elmer) after addition of 50 μL of scintillation fluid (LabLogic: Part #SG-BXX-14). […] IC50 values were derived from the inhibition curve and the equilibrium dissociation constant (Ki) values were calculated using the Cheng-Prusoff equation.

Human OX1 receptor [2] = molecular target: T1, Human OX1 receptor; assay: IPone accumulation assay, CHO cells expressing OX1; type: cell-based; conditions: antagonism of orexin A (EC80 ~20 nM)-induced inositol phosphate turnover, read-out: fpKb average OX1 (converted)
Method: Generation of CHO stable cell lines expressing the human OX1R and OX2R. Stable cell lines for the human OX1R and OX2R receptors were generated through the transfection of CHO cells using the transfection reagent Genejuice (Novagen number 70967) and cDNA coding for either the human OX1R or OX2R. Cells were cultured in Sigma Nutrient Mixture F-12 Ham media (catalog number N6658) supplemented with 10% heat-inactivated FBS. Forty-eight hours after transfection, cells were harvested and placed under geneticin selection by culturing in Sigma Nutrient Mixture F-12 Ham media supplemented with 10% heat-inactivated FBS and geneticin (ThermoFisher Catalog number: 10131035). Selection of the final stable clone for each receptor was made on the basis of receptor expression, assay signal to noise and robustness though increasing passage. Selected clones for the human OX1R and OX2R were then frozen down into liquid nitrogen using Cell Freezing Medium-DMSO (Sigma-Aldrich catalog number: C6164).
(§3) IPone accumulation assay. A CHO cell line stably expressing either human OX1 or OX2 receptor was used with the IPone HTRF assay kit (CisBio: Part #62IPAPEJ) to measure receptor activation. The assay was optimised to measure the ability (potency; fpKb) of antagonists to reduce agonist (orexin A)-induced inositol phosphate turnover. Briefly, cells were plated onto half area 96-well white walled plates at a density of 12,500 cells/well. Sixteen hours post-plating cell growth media was replaced with antagonist concentration-response curve diluted in stimulation buffer (supplied with the kit). Cells were incubated in a humidified incubator (37° C.) for 30 min before an EC80 challenge concentration (˜20 nM (OX1) and 40 nM (OX2)) of orexin A (Tocris catalogue number 1455). After 30 min stimulation in a humidified incubator (37° C.) the assay was terminated by the addition of detection mixture as per manufacturer's instructions. The concentration of compound which reduced orexin-A stimulated turnover of inositol phosphates by 50% (IC50) was calculated by fitting to a four parameter sigmoidal dose response curve. The IC50 values were converted to fpKB values using the orexin A pEC50 value estimated on each plate as well as the challenge concentration interpolated from the orexin A control curve.

Human OX2 receptor [3] = molecular target: T2, Human OX2 receptor (Homo sapiens (Human), UniProt O43614); assay: [3H]-radioligand binding assay, OX2; conditions: competition binding, membranes of SF21 cells, Ki by Cheng-Prusoff
T2 sequence (O43614 whole entry): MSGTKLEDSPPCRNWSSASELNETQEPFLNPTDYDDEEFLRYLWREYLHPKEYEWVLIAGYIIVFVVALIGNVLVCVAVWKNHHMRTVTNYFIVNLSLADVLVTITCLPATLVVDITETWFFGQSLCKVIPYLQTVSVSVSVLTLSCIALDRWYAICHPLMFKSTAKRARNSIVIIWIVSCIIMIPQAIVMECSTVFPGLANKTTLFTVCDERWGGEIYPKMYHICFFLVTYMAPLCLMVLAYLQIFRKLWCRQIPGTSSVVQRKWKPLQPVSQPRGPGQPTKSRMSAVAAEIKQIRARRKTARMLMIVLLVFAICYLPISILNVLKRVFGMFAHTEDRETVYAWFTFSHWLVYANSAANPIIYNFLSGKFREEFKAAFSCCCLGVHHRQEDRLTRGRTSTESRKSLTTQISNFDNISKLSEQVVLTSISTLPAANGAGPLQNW
Text: as §1, §2

Human OX2 receptor [4] = molecular target: T2, Human OX2 receptor; assay: IPone accumulation assay, CHO cells expressing OX2; type: cell-based; conditions: antagonism of orexin A (EC80 40 nM)-induced inositol phosphate turnover, read-out: fpKb average OX2 (converted)
Method: as §3, with “Generation of CHO stable cell lines expressing the human OX1R and OX2R. Stable cell lines for the human OX1R and OX2R receptors were generated through the transfection of CHO cells using the transfection reagent Genejuice (Novagen number 70967) and cDNA coding for either the human OX1R or OX2R. Cells were cultured in Sigma Nutrient Mixture F-12 Ham media (catalog number N6658) supplemented with 10% heat-inactivated FBS. Forty-eight hours after transfection, cells were harvested and placed under geneticin selection by culturing in Sigma Nutrient Mixture F-12 Ham media supplemented with 10% heat-inactivated FBS and geneticin (ThermoFisher Catalog number: 10131035). Selection of the final stable clone for each receptor was made on the basis of receptor expression, assay signal to noise and robustness though increasing passage. Selected clones for the human OX1R and OX2R were then frozen down into liquid nitrogen using Cell Freezing Medium-DMSO (Sigma-Aldrich catalog number: C6164). IPone accumulation” for “IPone accumulation”, “(CisBio: Part #62[…]) to measure” for “(CisBio: Part #62IPAPEJ) to measure”, “challenge concentration ( 20 nM (OX1)” for “challenge concentration (˜20 nM (OX1)”

T1 sequence (O43613 whole entry): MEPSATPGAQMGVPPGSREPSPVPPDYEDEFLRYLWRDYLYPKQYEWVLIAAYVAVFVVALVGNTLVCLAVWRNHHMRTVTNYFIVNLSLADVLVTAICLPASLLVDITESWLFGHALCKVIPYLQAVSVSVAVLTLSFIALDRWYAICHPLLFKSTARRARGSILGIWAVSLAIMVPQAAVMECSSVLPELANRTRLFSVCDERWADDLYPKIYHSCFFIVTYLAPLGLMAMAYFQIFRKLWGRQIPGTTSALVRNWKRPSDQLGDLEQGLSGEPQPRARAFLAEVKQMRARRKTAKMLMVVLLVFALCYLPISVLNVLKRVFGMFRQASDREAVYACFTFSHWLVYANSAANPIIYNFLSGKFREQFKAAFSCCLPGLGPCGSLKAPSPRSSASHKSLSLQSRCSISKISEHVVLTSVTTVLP

Row | Structure (SMILES) | pKi average OX1 (Human OX1 receptor [1]) | Kb (Human OX1 receptor [2]) [nM] | pKi average OX2 (Human OX2 receptor [3]) | Kb (Human OX2 receptor [4]) [nM]
1 | O=C(N[C@H]1CCC[C@@H]1COc1ccc(F)cc1)c1nc(NCCO)ccc1-n1nccn1 [Example 20, N-[(1S,2S)-2-[(4-fluorophenoxy)methyl]cyclopentyl]-6-(2-hydroxyethylamino)-3-(triazol-2-yl)pyridine-2-carboxamide] | 8.4 | 7.94 | 5.8 | > 501
2 | CC(=O)Nc1ccc(-c2ncccn2)c(C(=O)N[C@H]2CCC[C@@H]2COc2ccc(F)cc2)n1 [Example 14, 6-acetamido-N-[(1S,2S)-2-[(4-fluorophenoxy)methyl]cyclopentyl]-3-pyrimidin-2-yl-pyridine-2-carboxamide] | 8.3 | 3.98 | 6.0 | > 398
3 | CC(=O)Nc1ccc(-c2ncccn2)c(C(=O)N(C)[C@H]2CCC[C@@H]2COc2ccc(F)cc2)n1 [Example 18, 6-acetamido-N-[(1S,2S)-2-[(4-fluorophenoxy)methyl]cyclopentyl]-N-methyl-3-pyrimidin-2-yl-pyridine-2-carboxamide] | 8.6 | 0.631 | 6.8 | > 501
4 | O=C(N[C@H]1CCC[C@@H]1COc1ccc(F)cc1)c1nc(NC(=O)C(F)F)ccc1-n1nccn1 [Example 11, 6-[(2,2-difluoroacetyl)amino]-N-[(1S,2S)-2-[(4-fluorophenoxy)methyl]cyclopentyl]-3-(triazol-2-yl)pyridine-2-carboxamide] | 7.9 | 31.6 | <5.8 | > 1000
5 | Nc1ccc(-c2ncc(F)cn2)c(C(=O)N[C@H]2CCC[C@@H]2COc2ccc(F)cc2)n1 [Example 22, 6-amino-N-[(1S,2S)-2-[(4-fluorophenoxy)methyl]cyclopentyl]-3-(5-fluoropyrimidin-2-yl)pyridine-2-carboxamide] | 8.5 | 7.94 | 6.3 | > 1000
6 | CC(=O)Nc1ccc(-c2ncccn2)c(C(=O)N[C@H]2CCC[C@@H]2COc2ccc(Cl)cc2)n1 [Example 15, 6-acetamido-N-[(1S,2S)-2-[(4-chlorophenoxy)methyl]cyclopentyl]-3-pyrimidin-2-yl-pyridine-2-carboxamide] | 8.7 | 3.98 | 6.2 | > 631
7 | CC(=O)Nc1cc(C(=O)N[C@H]2CCC[C@@H]2COc2ccc(F)cc2)c(-n2nccn2)cn1 [Example 23, 2-acetamido-N-[(1S,2S)-2-[(4-fluorophenoxy)methyl]cyclopentyl]-5-(triazol-2-yl)pyridine-4-carboxamide] | 8.9 | 3.16 | 6.5 | > 63.1
8 | CC(=O)Nc1ccc(-n2nccn2)c(C(=O)N[C@H]2CCC[C@@H]2COc2ccc(F)cn2)n1 [Example 26, 6-acetamido-N-[(1S,2S)-2-[(5-fluoro-2-pyridyl)oxymethyl]cyclopentyl]-3-(triazol-2-yl)pyridine-2-carboxamide] | 7.9 | 316 | <5.1 | > 1000
9 | CC(=O)Nc1ccc(-n2nccn2)c(C(=O)N[C@H]2CCC[C@@H]2COc2ccc(F)c(F)c2)n1 [Example 9, 6-acetamido-N-[(1S,2S)-2-[(3,4-difluorophenoxy)methyl]cyclopentyl]-3-(triazol-2-yl)pyridine-2-carboxamide] | 8.2 | 25.1 | 5.9 | > 200
10 | CC(=O)Nc1ccc(-c2ncccn2)c(C(=O)N[C@H]2CCC[C@@H]2COc2ccc(F)cc2)c1F [Example 2, 3-acetamido-2-fluoro-N-[(1S,2S)-2-[(4-fluorophenoxy)methyl]cyclopentyl]-6-pyrimidin-2-yl-benzamide] | 7.7 | 50.1 | 5.6 | > 2510
11 | CC(=O)Nc1ccc(-n2nccn2)c(C(=O)N[C@H]2CCC[C@@H]2COc2ccc(F)cc2F)n1 [Example 17, 6-acetamido-N-[(1S,2S)-2-[(2,4-difluorophenoxy)methyl]cyclopentyl]-3-(triazol-2-yl)pyridine-2-carboxamide] | 9.1 | 50.1 | 5.4 | > 63.1

Reference: patent US12240825B2, “Oxexin 1 receptor antagonists” (Heptares Therapeutics Limited, priority 2019, dated 2025)
